Patent publication US4309425A (priority 1980, dated 1982)
Read-outs that look alike come from different tables or passages of the source.

Experiments:
[1] = test system: Puccinia graminis var. tritici; experiment: whole plant or invertebrate; format: in vivo; conditions: 192 h, read-out: % control wheat rust in preventive test
Erysiphe cichoracearum [2] = experiment: cucumber powdery mildew preventive test; format: in vivo; conditions: Golovinomyces cichoracearum, 168 h, 7 days
Procedure: (§1) Compounds of this invention are dissolved in acetone in an amount equal to 6% of the final volume and then suspended at a concentration of 20 ppm in purified water containing 25 ppm of the surfactant Alkanol® XC (sodium alkyl naphthalene sulfonate). This suspension is sprayed to the point of run-off on cucumber seedlings. The following day, the plants are inoculated with a spore suspension of the fungus Erysiphe cichoracearum and incubated in a growth room for 7 days. Disease ratings are then made. […] Phytotoxicity in the form of foliar burn or growth reduction was observed on some of the plants in association with disease control.

[3] = test system: Eggs of the beet armyworm (Spodoptera exigua); experiment: beet armyworm egg (ovicidal) test, % eggs failing to hatch; format: in vivo; conditions: 72 h, three days, read-out: % Control (% eggs failing to hatch); for mortality at 1 %: 1% in acetone
Procedure: Eggs of the beet armyworm (Spodoptera exigua), laid on cellophane discs each containing 50-75 eggs, were placed in petri dishes and lightly sprayed with 1% concentrations of the indicated compounds in acetone solution. Three days later, percent control (% eggs failing to hatch) was determined.
Eggs of the beet armyworm (Spodoptera exigua), laid on cellophane discs each containing 50-75 eggs, were placed in petri dishes and lightly sprayed with 200 ppm concentration of the indicated compounds in acetone solution. Three days later, percent control (% eggs failing to hatch) was determined.

Phytophthora infestans = experiment: whole plant or invertebrate; format: in vivo; conditions: in Solanum lycopersicum, 96 h, read-out: % control tomato late blight in a photostability test
[4] = test system: Puccinia graminis var. tritici; experiment: whole plant or invertebrate; format: in vivo; conditions: 192 h, read-out: % control wheat rust in residual wash-off test
Rhizoctonia solani = Rhizoctonia solani infested soil test, cotton; format: in vivo; conditions: 192 h, 1.5 kg/ha, 8 days
Excerpt: Rhizoctonia solani-infested soil was placed in a 900 cc cup. Compounds of this invention were mixed at a rate of 1.5 kg/ha in a section 2" wide×2" deep×4" long to simulate an in-the-row application. Five cotton seeds were planted in the treated soil. After 8 days, the cotton plants were removed and rated for disease control.

Erisyphe cichoracearum = experiment: cucumber powdery mildew curative test; format: in vivo; conditions: Cucumis sativus, 144 h, sprayed day after inoculation, additional 6 days
Excerpt: Cucumber plants are inoculated with a spore suspension of the fungus Erisyphe cichoracearum and in a growth room overnight. The following day, the plants are sprayed to the point of run-off with a suspension prepared by dissolving compounds of this invention in acetone in an amount equal to 6% of the final volume and then suspended at a concentration of 20 ppm in purified water containing 25 ppm of the surfactant Alkanol® XC (sodium alkyl naphthalene sulfonate). Plants are returned to the growth room for an additional 6 days when disease ratings are then made. […] Phytotoxicity in the form of foliar burn or growth reduction was observed on some of the plants in association with disease control.

[5] = test system: Puccinia graminis var. tritici; experiment: whole plant or invertebrate; format: in vivo; conditions: 192 h, read-out: % control wheat rust in a photostability test
Venturia inaequalis [6] = experiment: apple scab residual wash-off test; format: in vivo; conditions: 1/2 inch simulated rainfall, 10-12 days
Procedure: as §1, with “apple” for “cucumber”, “day, 1/2 inch of simulated rainfall is applied to the foliage of the plants. When the foliage is dry,” for “day,”, “Venturia inaequalis” for “Erysiphe cichoracearum”, “10-12” for “7”, “burn” for “burn or growth reduction”, “on” for “on some of”

Venturia inaequalis [7] = experiment: apple scab photostability test; format: in vivo; conditions: xenon arc 3500 foot candles 16 hours, 10-12 days
Procedure: as §1, with “apple” for “cucumber”, “seedlings. When the foliage is dry, the plants are exposed to 3500 foot candles of light from a xenon arc source for a period of 16 hours. This light source approximates the spectrum of natural sunlight, and is used to assess photostability of the compounds of this invention on plant foliage.” for “seedlings.”, “Venturia inaequalis” for “Erysiphe cichoracearum”, “10-12” for “7”, “burn” for “burn or growth reduction”

Sclerotinia sclerotiorum = experiment: white mold on carrot sections dip test; conditions: 100 ppm dip, 20° C., six days
Procedure: Surface-sterilized carrot sections were dipped two minutes in a 100 ppm solution of the compounds of this invention. Additional sections were dipped in a check solution which contained 500 ppm Alkanol® XC (sodium alkyl naphthalene sulfonate). After inoculation by placing a mycelial plug of Sclerotinia sclerotiorum on each carrot section, the test was held at 20° C. for six days.
The untreated carrot sections were completely invaded with the mycelial growth of white mold fungus, but the treated sections had little or no growth by this disease causing organism.

Erysiphe cichoracearum [8] = experiment: cucumber powdery mildew residual wash-off test; format: in vivo; conditions: Golovinomyces cichoracearum, 168 h, 1/2 inch simulated rainfall, 7 days
Procedure: Compounds of this invention are dissolved in acetone in an amount equal to 6% of the final volume and then suspended at a concentration of 20 ppm in purified water containing 25 ppm of the surfactant Alkanol® XC (sodium alkyl naphthalene sulfonate). This suspension is sprayed to the point of run-off on cucumber seedlings. The following day, 1/2 inch of simulated rainfall is applied to the foliage of the plants. When the foliage is dry, the plants are inoculated with a spore suspension on the fungus Erysiphe cichoracearum and incubated in a growth room for 7 days. Disease ratings are then made.

Erysiphe cichoracearum [9] = experiment: cucumber powdery mildew photostability test; format: in vivo; conditions: Golovinomyces cichoracearum, 168 h, xenon arc 3500 foot candles 16 hours, 7 days
Procedure: Compounds of this invention are dissolved in acetone in an amount equal to 6% of the final volume and then suspended at a concentration of 20 ppm in purified water containing 25 ppm of the surfactant Alkanol® XC (sodium alkyl naphthalene sulfonate). This suspension is sprayed to the point of run-off in cucumber seedlings. When the foliage is dry, the plants are exposed to 3500 foot candles of light from a xenon arc source for a period of 16 hours. This light source approximates the spectrum of natural sunlight, and is used to assess photostability of the compounds of this invention on plant foliage. The following day, the plants are inoculated with a spore suspension of the fungus Erysiphe cichoracearum and incubated in a growth room for 7 days. Disease ratings are then made.

SMILES	pest or weed control at 20 ppm [1] [%]	pest or weed control at 20 ppm (Erysiphe cichoracearum [2]) [%]	mortality at 1 % [3] [%]	pest or weed control at 20 ppm (Phytophthora infestans) [%]	pest or weed control at 20 ppm [4] [%]	pest or weed control at 1500 g/ha (Rhizoctonia solani) [%]	pest or weed control at 20 ppm (Erisyphe cichoracearum) [%]	pest or weed control at 20 ppm [5] [%]	pest or weed control at 20 ppm (Venturia inaequalis [6]) [%]	pest or weed control at 20 ppm (Venturia inaequalis [7]) [%]	% control White Mold (Sclerotinia sclerotiorum) [%]	pest or weed control at 20 ppm (Erysiphe cichoracearum [8]) [%]	pest or weed control at 20 ppm (Erysiphe cichoracearum [9]) [%]	mortality at 200 ppm ([3]; 200 ppm in acetone) [%]
Cc1ccc(S(=O)(=O)N(C)SN(c2cc(C(F)(F)F)ccc2Cl)c2c([N+](=O)[O-])cc([N+](=O)[O-])cc2C(F)(F)F)cc1	80	100	100	50	100	100	100	40	100	100	100	92	0	
CCCCN(SN(c1cc(C(F)(F)F)ccc1Cl)c1c([N+](=O)[O-])cc([N+](=O)[O-])cc1C(F)(F)F)S(=O)(=O)c1ccccc1C	100	100	100	90	100	50	93	98	100	80	100	100	100	
CCCCN(SN(c1cc(C(F)(F)F)ccc1Cl)c1c([N+](=O)[O-])cc([N+](=O)[O-])cc1C(F)(F)F)S(=O)(=O)c1ccc(C)cc1	100	100		95	100	100	92	100	100	0	86	100	75	100
